Numbers after ± are expanded uncertainties.

This data set is described as follows: activity coefficient (dimensionless); of the first substance listed, at infinite dilution; xn = mol fraction of the nth substance listed. As to conditions: 101 kPa, Liquid, Chromatography, x1 = 0.

As for `C=CC=O` [2-propenal] + O, the activity coefficient (298.15 K) came to 20.9 ± 0.8; the activity coefficient (301.15 K) was determined as 21.5 ± 0.8; the activity coefficient (303.15 K) worked out at 21.4 ± 0.8; the activity coefficient (305.15 K) turned out to be 21.7 ± 0.8; the activity coefficient (308.15 K) was 22.4 ± 0.8; the activity coefficient (310.15 K) was 22.6 ± 0.8. Also, the activity coefficient (313.15 K) stood at 23.1 ± 0.9; the activity coefficient (315.15 K) came out at 23.5 ± 0.9; the activity coefficient (318.15 K) amounted to 24 ± 0.9; the activity coefficient (320.15 K) was determined as 24.1 ± 0.9; the activity coefficient (323.15 K) came out at 24.1 ± 0.9; the activity coefficient (325.15 K) amounted to 24.3 ± 0.9. In addition, the activity coefficient (328.15 K) was determined as 24.3 ± 0.9, the activity coefficient (330.15 K) was found to be 24.5 ± 0.9 and the activity coefficient (333.15 K) was 24.4 ± 1.
Turning to `C/C=C/C=O` [(E)-2-butenal] + O, the activity coefficient runs as follows: (298.15 K) 39 ± 1.6; (308.15 K) 42.8 ± 1.6; (313.15 K) 44.4 ± 1.8; (318.15 K) 46.2 ± 1.9; (323.15 K) 47 ± 2.1; (328.15 K) 47.3 ± 2. Further, where the note is “333.15 K”, the activity coefficient amounted to 48 ± 1.9.
As for `CCCCO` [butan-1-ol] + O, the activity coefficient was found to be 52 ± 3 (303.15 K); 57 ± 2 (308.15 K); 58 ± 3 (313.15 K); 64 ± 3 (318.15 K); 69 ± 3 (323.15 K); 72 ± 3 (328.15 K). Further, the activity coefficient reads like this: (333.15 K) 80 ± 3; (338.15 K) 78 ± 3.
Consider `c1ccoc1` [furan] + O, for which the activity coefficient runs as follows: (298.15 K) 415 ± 20; (299.15 K) 412 ± 20; (301.15 K) 403 ± 19; (303.15 K) 397 ± 19; (305.15 K) 394 ± 19; (306.15 K) 380 ± 19. Further, the activity coefficient reads like this: (308.15 K) 372 ± 19; (311.15 K) 366 ± 22; (313.15 K) 356 ± 20.
For the compound `CCCCC=O` [pentanal] + O, the activity coefficient was 220 ± 8 (298.15 K); 260 ± 10 (303.15 K); 276 ± 10 (308.15 K); 302 ± 12 (313.15 K); 324 ± 12 (318.15 K); 339 ± 14 (323.15 K). In addition, the activity coefficient (328.15 K) was 350 ± 14.
